Results as given in patent publication US7612064B2, “Sulfopyrroles” (Takeda Pharmaceutical Company Limited, priority 2003, dated 2009).

Experiments:
HeLa = assay: MTS proliferation assay; assay type: cell-based, human; settings: 72 h
Method in brief: (§1)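 Compounds at final 10/3/1/0.3 μM (added in complete medium, ≤5% DMSO); 72 h, culture conditions; + MTS, 3 h; A492.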

Jurkat = assay: MTS proliferation assay; assay type: cell-based, human; settings: 72 h
Method in brief: as §1

[1] = Hoechst 33342 nuclear staining; assay type: cell-based; settings: for Hoechst 33342 nuclear staining score, H460: H460 cells; for Hoechst 33342 nuclear staining score, HeLa: HeLa cells; for Hoechst 33342 nuclear staining score, Jily: Jily cells; for Hoechst 33342 nuclear staining score, Jurkat: Jurkat cells; for Hoechst 33342 nuclear staining score, MRC5: MRC5 cells; for Hoechst 33342 nuclear staining score, PBLs: key: 0: no activity; 1: weak activity comprising less than 50% of the cells; 2: strong activity comprising more than 50% of the cells;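 for all read-outs here: apoptotic nuclei scored 0 none 1 weak under 50% of cells 2 strong over 50% of cells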
Method in brief: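 Cells were plated in 96 well tissue culture plates in 80 μl complete medium, with 3-5*10^3 cells per well for adherent lines and 8-10*10^3 for suspension lines. Adherent cells spread for 24 h before treatment, while suspension cells were treated right after seeding. Compounds were added in 20 μl complete medium containing max 5% DMSO.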

MRC5 = assay: MTS proliferation assay; assay type: cell-based; settings: MRC5, 72 h
Method in brief: as §1

Row | Structure (SMILES) | IC50 (HeLa) [nM] | IC50 (Jurkat) [nM] | Hoechst 33342 nuclear staining score, H460 ([1]; conc 0.1) | Hoechst 33342 nuclear staining score, H460 ([1]; conc 0.3) | Hoechst 33342 nuclear staining score, H460 ([1]; conc 1) | Hoechst 33342 nuclear staining score, H460 ([1]; conc 3) | Hoechst 33342 nuclear staining score, HeLa ([1]; conc 0.1) | Hoechst 33342 nuclear staining score, HeLa ([1]; conc 0.3) | Hoechst 33342 nuclear staining score, HeLa ([1]; conc 1) | Hoechst 33342 nuclear staining score, HeLa ([1]; conc 3) | Hoechst 33342 nuclear staining score, Jily ([1]; conc 0.1) | Hoechst 33342 nuclear staining score, Jily ([1]; conc 0.3) | Hoechst 33342 nuclear staining score, Jily ([1]; conc 1) | Hoechst 33342 nuclear staining score, Jily ([1]; conc 3) | Hoechst 33342 nuclear staining score, Jurkat ([1]; conc 0.1) | Hoechst 33342 nuclear staining score, Jurkat ([1]; conc 0.3) | Hoechst 33342 nuclear staining score, Jurkat ([1]; conc 1) | Hoechst 33342 nuclear staining score, Jurkat ([1]; conc 3) | Hoechst 33342 nuclear staining score, MRC5 ([1]; conc 0.1) | Hoechst 33342 nuclear staining score, MRC5 ([1]; conc 0.3) | also measured
1 | COc1cc(-c2cc(CNc3ccc(S(N)(=O)=O)cc3)cn2S(=O)(=O)c2ccc(C)cc2)cc(OC)c1OC [Example 70] | > 1000 | < 1000 | 0 | 0 | 0 | 2 (strong activity comprising more than 50% of the cells) | 0 | 0 | 0 | 0 | 0 | 0 | 0 | 2 (strong activity comprising more than 50% of the cells) | 0 | 0 | 2 (strong activity comprising more than 50% of the cells) | 2 (strong activity comprising more than 50% of the cells) | 0 | 0 | Hoechst 33342 nuclear staining score, MRC5 ([1]; conc 1): 0; Hoechst 33342 nuclear staining score, MRC5 ([1]; conc 3): 2 (strong activity comprising more than 50% of the cells); Hoechst 33342 nuclear staining score, PBLs ([1]; conc 0.1): 0; Hoechst 33342 nuclear staining score, PBLs ([1]; conc 0.3): 0; Hoechst 33342 nuclear staining score, PBLs ([1]; conc 1): 0; Hoechst 33342 nuclear staining score, PBLs ([1]; conc 3): 0; IC50 (MRC5): > 1000 nM
2 | COc1cc(-c2cc(CNc3ccc(N4CCOCC4)cc3)cn2S(=O)(=O)c2ccc(C)cc2)cc(OC)c1OC [Example 71] | < 1000 | < 1000 | 0 | 0 | 2 (strong activity comprising more than 50% of the cells) | 2 (strong activity comprising more than 50% of the cells) | 0 | 0 | 2 (strong activity comprising more than 50% of the cells) | 2 (strong activity comprising more than 50% of the cells) | 0 | 0 | 2 (strong activity comprising more than 50% of the cells) | 2 (strong activity comprising more than 50% of the cells) | 0 | 2 (strong activity comprising more than 50% of the cells) | 2 (strong activity comprising more than 50% of the cells) | 2 (strong activity comprising more than 50% of the cells) | 0 | 0 | Hoechst 33342 nuclear staining score, MRC5 ([1]; conc 1): 2 (strong activity comprising more than 50% of the cells); Hoechst 33342 nuclear staining score, MRC5 ([1]; conc 3): 2 (strong activity comprising more than 50% of the cells); Hoechst 33342 nuclear staining score, PBLs ([1]; conc 0.1): 0; Hoechst 33342 nuclear staining score, PBLs ([1]; conc 0.3): 0; Hoechst 33342 nuclear staining score, PBLs ([1]; conc 1): 0; Hoechst 33342 nuclear staining score, PBLs ([1]; conc 3): 0; IC50 (MRC5): < 1000 nM
